Usually IC50 stands for the point on the concentration scale where inhibition reaches its midpoint. Higher therefore signals weaker potency in that assay.

This assay has as its target T1, TryP (TbTryP) (Trypanosoma brucei, UniProt Q71RY2).
T1 sequence (Q71RY2 1-199): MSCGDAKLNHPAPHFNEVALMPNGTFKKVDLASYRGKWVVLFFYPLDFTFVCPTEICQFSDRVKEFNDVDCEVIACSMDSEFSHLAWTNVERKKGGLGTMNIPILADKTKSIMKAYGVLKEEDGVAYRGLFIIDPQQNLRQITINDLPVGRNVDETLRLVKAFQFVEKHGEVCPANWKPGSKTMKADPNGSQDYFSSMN
The assay can be described thus: TryP-limited coupled peroxidase assay, NADPH consumption at […] nm. The assay is classed as biochemical.

`O=C1C=CC(O)(c2nc3ccccc3s2)C=C1` [compound 1, PMX464]: the IC50 was 14.1 ± 0.8 µM.

For the origin of these results see PMC3048735 (The Journal of Biological Chemistry, 2011).
